Test results reported in US4468511A, “C-20- And C-23-Modified macrolide derivatives” (Eli Lilly and Company, priority 1983, dated 1984).
≈ marks a conversion by molar mass, not a printed value. Where two headings read alike, the source gives them in different places.

What was measured:
[1] = system: Streptococcus pyogenes C203; experiment: Protection of mice experimentally infected with S. pyogenes C203; assay type: in vivo
Protocol: Some of the derivatives of this invention have shown in vivo antimicrobial activity against experimentally-induced infections in laboratory animals. When two doses of test compound were administered to mice experimentally infected with S. pyogenes C203, the activity observed was measured as an ED50 value [effective dose in mg/kg to protect 50% of the test animals: see Warren Wick, et al., J. Bacteriol. 81, 233-235 (1961)].

Pasteurella multocida = experiment: Pasteurella infection in one-day old chicks; assay type: in vivo; details: subcutaneous, 30 mg/kg × 2, 1 and 4 hours post-challenge
[2] = system: Staphylococcus epidermidis EPI1; experiment: microbe, parasite or virus in culture; assay type: cell-based; details: Staphylococcus epidermidis, EPI1
Protocol: (§1) The MIC's in Table II were determined by standard agar-dilution assays. The MIC's in Table III were obtained using a conventional broth-dilution microtiter test.

[3] = system: Staphylococcus aureus S13E; experiment: microbe, parasite or virus in culture; assay type: cell-based
Protocol: as §1

Escherichia coli EC14 = experiment: MIC, standard agar-dilution assay; assay type: cell-based; details: agar-dilution; Escherichia coli EC14; read-out: MIC
Protocol: (§2) Certain of the derivatives are active against some gram-negative bacteria, such as Pasteurella species. The MIC's in Table II were determined by standard agar-dilution assays. The MIC's in Table III were obtained using a conventional broth-dilution microtiter test.

[4] = system: Streptococcus pyogenes C203; experiment: MIC, standard agar-dilution assay; assay type: cell-based; details: agar-dilution; Streptococcus pyogenes C203; read-out: MIC
Protocol: as §2

[5] = system: Streptococcus Group D X66; experiment: MIC, standard agar-dilution assay; assay type: cell-based
Protocol: as §2

[6] = system: Staphylococcus aureus V41; experiment: MIC, standard agar-dilution assay; assay type: cell-based; details: agar-dilution; Staphylococcus aureus V41, Penicillin-resistant strain; read-out: MIC
Protocol: as §2

[7] = system: Klebsiella pneumoniae KAE; experiment: MIC, standard agar-dilution assay; assay type: cell-based; details: agar-dilution; Klebsiella pneumoniae KAE; read-out: MIC
Method in brief: (§3)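 Broth microdilution MICs cover P. hemolytica, P. multocida and M. gallisepticum. The agar-dilution MIC covers K. pneumoniae only.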

[8] = system: Staphylococcus aureus X1.1; experiment: MIC, standard agar-dilution assay; assay type: cell-based; details: Staphylococcus aureus, X1.1
Method in brief: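 Minimum inhibitory concentration against Staphylococcus aureus strain X1.1 was measured with a standard agar-dilution method. The result is reported as the MIC in ug/mL, i.e. the lowest compound concentration in agar that prevents visible growth of this organism.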

[9] = system: Streptococcus pyogenes 9960; experiment: MIC, standard agar-dilution assay; assay type: cell-based; details: agar-dilution, Streptococcus 9960, read-out: MIC
Protocol: as §2

[10] = system: Streptococcus pneumoniae Park I; experiment: MIC, standard agar-dilution assay; assay type: cell-based; details: agar-dilution; Streptococcus pneumoniae Park I; read-out: MIC
Protocol: as §2

Escherichia coli TEM = experiment: MIC, standard agar-dilution assay; assay type: cell-based; details: agar-dilution; Escherichia coli TEM; read-out: MIC
Method in brief: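 Minimum inhibitory concentrations against Escherichia coli were measured with a standard agar-dilution method. The result for each derivative is the lowest concentration that inhibits bacterial growth, given in ug/mL.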

[11] = system: Klebsiella pneumoniae X26; experiment: MIC, standard agar-dilution assay; assay type: cell-based; details: agar-dilution; Klebsiella pneumoniae X26; read-out: MIC
Method in brief: as §3

[12] = system: Staphylococcus aureus X400; experiment: MIC, standard agar-dilution assay; assay type: cell-based; details: agar-dilution; Staphylococcus aureus X400, Methicillin-resistant strain; read-out: MIC
Protocol: as §1

[13] = system: Haemophilus influenzae C.L.; experiment: MIC, standard agar-dilution assay; assay type: cell-based; details: agar-dilution; Haemophilus influenzae C.L., Ampicillin-sensitive strain; read-out: MIC
Protocol: as §1

[14] = system: Haemophilus influenzae 76; experiment: MIC, standard agar-dilution assay; assay type: cell-based; details: Haemophilus influenzae, 76
Protocol: as §1

[15] = system: Staphylococcus epidermidis EPI2; experiment: MIC, standard agar-dilution assay; assay type: cell-based; details: agar-dilution; Staphylococcus epidermidis EPI2; read-out: MIC
Protocol: as §1

[16] = system: Pasteurella multocida 68C; experiment: MIC, conventional broth-dilution microtiter test; assay type: cell-based; details: Pasteurella multocida, 68C
Method in brief: as §3

Streptococcus sp. 80 = experiment: MIC, conventional broth-dilution microtiter test; assay type: cell-based; details: broth-dilution microtiter; Streptococcus sp. 80; read-out: MIC
Protocol: as §2

[17] = system: Pasteurella multocida 60A; experiment: MIC, conventional broth-dilution microtiter test; assay type: cell-based; details: Pasteurella multocida, 60A
Method in brief: as §3

Staphylococcus aureus = experiment: MIC, conventional broth-dilution microtiter test; assay type: cell-based
Protocol: as §2

Mycoplasma gallisepticum = experiment: MIC, conventional broth-dilution microtiter test; assay type: cell-based; details: Mycoplasmoides gallisepticum; broth-dilution microtiter; Mycoplasma gallisepticum; read-out: MIC
Method in brief: as §3

[18] = system: Mycoplasma gallisepticum 41313; experiment: MIC, conventional broth-dilution microtiter test; assay type: cell-based; details: Mycoplasmoides gallisepticum; broth-dilution microtiter; Mycoplasma gallisepticum 41313, Resistant strain; read-out: MIC
Method in brief: as §3

[19] = system: Pasteurella multocida 40G; experiment: MIC, conventional broth-dilution microtiter test; assay type: cell-based; details: Pasteurella multocida, 40G
Method in brief: as §3

[20] = system: Mycoplasma gallisepticum 34159; experiment: MIC, conventional broth-dilution microtiter test; assay type: cell-based; details: Mycoplasmoides gallisepticum; broth-dilution microtiter; Mycoplasma gallisepticum 34159, Resistant strain; read-out: MIC
Method in brief: as §3

Mycoplasma synoviae = experiment: MIC, conventional broth-dilution microtiter test; assay type: cell-based; details: Mycoplasmopsis synoviae
Method in brief: (§4)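 Minimum inhibitory concentrations are determined by conventional broth dilution in microtiter wells for Pasteurella and Mycoplasma isolates. For Klebsiella pneumoniae KAE, the standard agar-dilution assay is used.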

Mycoplasma hyorhinis = experiment: MIC, conventional broth-dilution microtiter test; assay type: cell-based; details: broth-dilution microtiter; Mycoplasma hyorhinis; read-out: MIC
Method in brief: as §4

[21] = system: Pasteurella multocida 17E; experiment: MIC, conventional broth-dilution microtiter test; assay type: cell-based; details: broth-dilution microtiter; Pasteurella multocida 17E, Bovine isolate; read-out: MIC
Method in brief: as §3

[22] = system: Pasteurella hemolytica 41D; experiment: MIC, conventional broth-dilution microtiter test; assay type: cell-based; details: broth-dilution microtiter; Pasteurella hemolytica 41D; read-out: MIC
Method in brief: as §3

[23] = system: Pasteurella multocida 22A; experiment: MIC, conventional broth-dilution microtiter test; assay type: cell-based; details: Pasteurella multocida, 22A
Method in brief: as §3

[24] = system: Pasteurella hemolytica 22C; experiment: MIC, conventional broth-dilution microtiter test; assay type: cell-based; details: broth-dilution microtiter; Pasteurella hemolytica 22C; read-out: MIC
Method in brief: as §3

[25] = system: Pasteurella hemolytica 23C; experiment: MIC, conventional broth-dilution microtiter test; assay type: cell-based; details: broth-dilution microtiter; Pasteurella hemolytica 23C; read-out: MIC
Method in brief: as §3

CCC1CC(C)C(=O)C=CC(C)=CC(CN2CCC(O)CC2)C(CC)OC(=O)CC(O)C(C)C1OC1OC(C)C(O)C(N(C)C)C1O (stereo not shown) [Compound 45, 23-(4-Hydroxypiperidino)-20,23-dideoxy-20-dihydro-OMT]
ED50 ([1]; C203, po, read-out: ED50 Oral): > 100 mg/kg
ED50 ([1]; C203, sc, mice, subcutaneous, mg/kg × 2, doses given 1 and 4 hours postinfection, read-out: ED50 Subcutaneous): > 10 mg/kg
Number of Deaths/Number Treated (Pasteurella multocida): 10/10
MIC [2]: 8 µg/mL (≈ 12 µM)
MIC [3]: 8 µg/mL (≈ 12 µM)
MIC (Escherichia coli EC14): > 128 µg/mL
MIC [4]: 32 µg/mL (≈ 48 µM)
MIC [5]: 64 µg/mL (≈ 96 µM)
MIC [6]: 16 µg/mL (≈ 24 µM)
MIC [7]: > 128 µg/mL
MIC [8]: 8 µg/mL (≈ 12 µM)
MIC [9]: 128 µg/mL (≈ 192 µM)
MIC [10]: 2 µg/mL (≈ 3 µM)
MIC (Escherichia coli TEM): > 128 µg/mL
MIC [11]: 16 µg/mL (≈ 24 µM)
MIC [12]: 32 µg/mL (≈ 48 µM)
MIC [13]: 32 µg/mL (≈ 48 µM)
MIC [14]: 64 µg/mL (≈ 96 µM)
MIC [15]: 2 µg/mL (≈ 3 µM)
MIC [16]: 12.5 µg/mL (≈ 18.7 µM)
MIC (Streptococcus sp. 80): 1.56 µg/mL (≈ 2.34 µM)
MIC [17]: 12.5 µg/mL (≈ 18.7 µM)
MIC (Staphylococcus aureus): 12.5 µg/mL (≈ 18.7 µM)
MIC (Mycoplasma gallisepticum): 6.25 µg/mL (≈ 9.37 µM)
MIC [18]: 50 µg/mL (≈ 75 µM)
MIC [19]: 12.5 µg/mL (≈ 18.7 µM)
MIC [20]: > 50 µg/mL
MIC (Mycoplasma synoviae): 12.5 µg/mL (≈ 18.7 µM)
MIC (Mycoplasma hyorhinis): > 50 µg/mL
MIC [21]: 25 µg/mL (≈ 37.5 µM)
MIC [22]: 25 µg/mL (≈ 37.5 µM)
MIC [23]: 12.5 µg/mL (≈ 18.7 µM)
MIC [24]: 25 µg/mL (≈ 37.5 µM)
MIC [25]: 25 µg/mL (≈ 37.5 µM)
